In one assay the test system is Escherichia coli. Put plainly: Antibacterial screening against E. coli. The format is cell-based. Particulars: read-out: E. coli IC50.
Another assay concerns Staphylococcus aureus. As to the kind of experiment: Antibacterial screening against S. aureus. The format is cell-based. The conditions noted are these: read-out: S. aureus IC50.
Assay [1] concerns M. tuberculosis H37Ra-lux. As to the kind of experiment: microbe, parasite or virus in culture. The conditions noted are these: for IC50: read-out: M. tuberculosis H37Ra-lux IC50; for IC90: read-out: M. tuberculosis H37Ra-lux IC90. The format is cell-based, Mycobacterium tuberculosis.
Another assay has as its system MTB. Particulars: cited from earlier work.
Where [2] appears, read: Mycobacterium tuberculosis, H37RA, 168 h.

Read-outs that look alike come from different tables or passages of the source.

With `O=C(Nc1ccc(N2CCN(C(=O)c3cnccn3)CC2)nc1)c1c(Cl)cccc1Br` [6j, 2-Bromo-6-chloro-N-(6-(4-(pyrazine-2-carbonyl)piperazin-1-yl)pyridin-3-yl)benzamide], the IC50 (commonly the concentration needed to halve the response being measured) was above 64 µM in the assay on Escherichia coli, above 64 µM in the assay with Staphylococcus aureus (Staphylococcus aureus), 1.82 µM in assay [1] (setting [2]) and 2.14 µM in assay [1]. Also, in assay [1], the IC90 – broadly, the point of the concentration-response curve where the effect stands at 90% – is 3.94 µM.
In the case of `O=C(Nc1ccc(C(F)(F)F)cc1)c1cnccn1` [A, N-(4-(trifluoromethyl)phenyl)pyrazine-2-carboxamide], the “MIC, anti-mycobacterial activity” value in the assay on MTB was at most 2 ng/mL.
As for `Cc1ccc(NC(=O)c2cnccn2)cc1I` [C, N-(3-iodo-4-methylphenyl)pyrazine-2-carboxamide], the “MIC, anti-mycobacterial activity” value in the assay on MTB is at most 2 ng/mL.
Take `CC(C)(C)c1ccc(C(=O)Nc2ccc(N3CCCN(C(=O)c4cnccn4)CC3)nc2)cc1` [7c, 4-(tert-Butyl)-N-(6-(4-(pyrazine-2-carbonyl)-1,4-diazepan-1-yl)pyridin-3-yl)benzamide]: the IC50 (in the assay with Escherichia coli; in the assay on Staphylococcus aureus (Staphylococcus aureus); in assay [1] (setting [2])) was above 64 µM each time.
Regarding `O=C(Nc1ccc(N2CCCN(C(=O)c3cnccn3)CC2)nc1)c1ccc(Cl)cc1Cl` [7j, 2,4-Dichloro-N-(6-(4-(pyrazine-2-carbonyl)-1,4-diazepan-1-yl)pyridin-3-yl)benzamide], the IC50 (with Escherichia coli; in the assay with Staphylococcus aureus (Staphylococcus aureus); in assay [1] (setting [2])) was above 64 µM in each case.
`O=C(Nc1ccc(N2CCCN(C(=O)c3cnccn3)CC2)nc1)c1c(F)cccc1Cl` [7m, 2-Chloro-6-fluoro-N-(6-(4-(pyrazine-2-carbonyl)-1,4-diazepan-1-yl)pyridin-3-yl)benzamide]: the IC50 (with Escherichia coli; with Staphylococcus aureus (Staphylococcus aureus); in assay [1] (setting [2])) was above 64 µM throughout.
As for `O=C(Nc1ccc(N2CCN(C(=O)c3cnccn3)CC2)nc1)c1ccc(Cl)cc1` [6d, 4-Chloro-N-(6-(4-(pyrazine-2-carbonyl)piperazin-1-yl)pyridin-3-yl)benzamide], the half-inhibitory concentration (IC50) (in the assay with Escherichia coli; in the assay on Staphylococcus aureus (Staphylococcus aureus); in assay [1] (setting [2])) was above 64 µM throughout.
Take `O=C(Nc1ccc(N2CCCN(C(=O)c3cnccn3)CC2)nc1)c1ccccc1` [7a, N-(6-(4-(Pyrazine-2-carbonyl)-1,4-diazepan-1-yl)pyridin-3-yl)benzamide]: the IC50 (in the assay with Escherichia coli; in the assay with Staphylococcus aureus (Staphylococcus aureus); in assay [1] (setting [2])) was above 64 µM throughout.
`CC(C)(C)c1ccc(C(=O)Nc2ccc(N3CCN(C(=O)c4cnccn4)CC3)nc2)cc1` [6c, 4-(tert-Butyl)-N-(6-(4-(pyrazine-2-carbonyl)piperazin-1-yl)pyridin-3-yl)benzamide]: the IC50 (in the assay on Escherichia coli; in the assay on Staphylococcus aureus (Staphylococcus aureus); in assay [1] (setting [2])) was above 64 µM in each case.
As to `O=C(Nc1ccc(N2CCN(C(=O)c3cnccn3)CC2)nc1)c1ccccc1I` [6i, 2-Iodo-N-(6-(4-(pyrazine-2-carbonyl)piperazin-1-yl)pyridin-3-yl)benzamide], the half-inhibitory concentration (IC50) (with Escherichia coli; in the assay on Staphylococcus aureus (Staphylococcus aureus); in assay [1] (setting [2])) was above 64 µM in each case.
Turning to `O=C(Nc1ccc(N2CCCN(C(=O)c3cnccn3)CC2)nc1)c1ccc(Cl)cc1` [7d, 4-Chloro-N-(6-(4-(pyrazine-2-carbonyl)-1,4-diazepan-1-yl)pyridin-3-yl)benzamide], the IC50 (in the assay on Escherichia coli; in the assay on Staphylococcus aureus (Staphylococcus aureus); in assay [1] (setting [2])) was above 64 µM each time.
Regarding `O=C(Nc1ccc(N2CCN(C(=O)c3cnccn3)CC2)nc1)c1ccc(Br)cc1` [6e, 4-Bromo-N-(6-(4-(pyrazine-2-carbonyl)piperazin-1-yl)pyridin-3-yl)benzamide], the IC50 with Escherichia coli was above 64 µM; in the assay on Staphylococcus aureus (Staphylococcus aureus), above 64 µM; in assay [1] (setting [2]), 2.18 µM.
Take `O=C(Nc1ccc(N2CCCN(C(=O)c3cnccn3)CC2)nc1)c1cccc([N+](=O)[O-])c1` [7f, 3-Nitro-N-(6-(4-(pyrazine-2-carbonyl)-1,4-diazepan-1-yl)pyridin-3-yl)benzamide]: the IC50 (in the assay on Escherichia coli; in the assay on Staphylococcus aureus (Staphylococcus aureus); in assay [1] (setting [2])) was above 64 µM throughout.
For the compound `O=C(Nc1ccc(N2CCCN(C(=O)c3cnccn3)CC2)nc1)c1ccncc1` [7l, N-(6-(4-(Pyrazine-2-carbonyl)-1,4-diazepan-1-yl)pyridin-3-yl)isonicotinamide], the concentration for half-maximal inhibition (IC50) (in the assay with Escherichia coli; in the assay with Staphylococcus aureus (Staphylococcus aureus); in assay [1] (setting [2])) was above 64 µM each time.
With `CCn1cc(C(=O)O)c(=O)c2cc(F)c(N3CCNCC3)cc21` [Norfloxacin, reference compound], in the assay on Escherichia coli, the IC50 was 0.38 µM.
`COc1ccc(C(=O)Nc2ccc(N3CCN(C(=O)c4cnccn4)CC3)nc2)cc1` [6b, 4-Methoxy-N-(6-(4-(pyrazine-2-carbonyl)piperazin-1-yl)pyridin-3-yl)benzamide]: the IC50 (with Escherichia coli; in the assay with Staphylococcus aureus (Staphylococcus aureus); in assay [1] (setting [2])) was above 64 µM throughout.
For `O=C(Nc1ccc(N2CCN(C(=O)c3cnccn3)CC2)nc1)c1ccc(Cl)cc1Cl` [6l, 2,4-Dichloro-N-(6-(4-(pyrazine-2-carbonyl)piperazin-1-yl)pyridin-3-yl)benzamide], the IC50 (in the assay with Escherichia coli; in the assay with Staphylococcus aureus (Staphylococcus aureus); in assay [1] (setting [2])) was above 64 µM throughout. Also, the “Anti-TB activity against M. tuberculosis H37Ra in words” value (“Anti-TB activity” below) in assay [1] was “inactive”.
For the compound `O=C(Nc1ccc(N2CCN(C(=O)c3cnccn3)CC2)nc1)c1ccccc1` [6a, N-(6-(4-(Pyrazine-2-carbonyl)piperazin-1-yl)pyridin-3-yl)benzamide], the results for the half-inhibitory concentration (IC50) (in the assay with Escherichia coli; in the assay with Staphylococcus aureus (Staphylococcus aureus); in assay [1] (setting [2])) were above 64 µM, above 64 µM and 1.46 µM, respectively.
Regarding `C[C@H]1c2cccc(O)c2C(O)=C2C(=O)[C@]3(O)C(O)=C(C(N)=O)C(=O)[C@@H](N(C)C)[C@@H]3[C@@H](O)[C@@H]21` [Doxycyclin, reference compound], in the assay with Staphylococcus aureus, the IC50 was 0.09 µM.
For the compound `O=C(Nc1ccc(N2CCCN(C(=O)c3cnccn3)CC2)nc1)c1cnccn1` [7k, N-(6-(4-(Pyrazine-2-carbonyl)-1,4-diazepan-1-yl)pyridin-3-yl)pyrazine-2-carboxamide], the IC50 with Escherichia coli and with Staphylococcus aureus (Staphylococcus aureus) was above 64 µM each time.
Consider `O=C(Nc1ccc(N2CCN(C(=O)c3cnccn3)CC2)nc1)c1cccc([N+](=O)[O-])c1` [6f, 3-Nitro-N-(6-(4-(pyrazine-2-carbonyl)piperazin-1-yl)pyridin-3-yl)benzamide], for which the half-inhibitory concentration (IC50) (in the assay on Escherichia coli; in the assay on Staphylococcus aureus (Staphylococcus aureus); in assay [1] (setting [2])) was above 64 µM throughout. Besides, the “Anti-TB activity” value in assay [1] is “inactive”.
For `CCOc1ccc(C(=O)Nc2ccc(N3CCCN(C(=O)c4cnccn4)CC3)nc2)cc1` [7b, 4-Ethoxy-N-(6-(4-(pyrazine-2-carbonyl)-1,4-diazepan-1-yl)pyridin-3-yl)benzamide], the IC50 (in the assay with Escherichia coli; in the assay on Staphylococcus aureus (Staphylococcus aureus); in assay [1] (setting [2])) was above 64 µM in each case.
Take `O=C(Nc1ccc(N2CCN(C(=O)c3cnccn3)CC2)nc1)c1cnccn1` [6n, N-(6-(4-(Pyrazine-2-carbonyl)piperazin-1-yl)pyridin-3-yl)pyrazine-2-carboxamide]: the IC50 (in the assay on Escherichia coli; in the assay on Staphylococcus aureus (Staphylococcus aureus); in assay [1] (setting [2])) was above 64 µM each time. In addition, the “Anti-TB activity” value in assay [1] was “loss of activity”.
Regarding `O=C(Nc1ccc(N2CCCN(C(=O)c3cnccn3)CC2)nc1)c1ccc(Br)cc1Cl` [7i, 4-Bromo-2-chloro-N-(6-(4-(pyrazine-2-carbonyl)-1,4-diazepan-1-yl)pyridin-3-yl)benzamide], the IC50 (in the assay with Escherichia coli; with Staphylococcus aureus (Staphylococcus aureus); in assay [1] (setting [2])) was above 64 µM throughout.
With `O=C(Nc1ccc(N2CCCN(C(=O)c3cnccn3)CC2)nc1)c1ccc(Br)cc1` [7e, 4-Bromo-N-(6-(4-(pyrazine-2-carbonyl)-1,4-diazepan-1-yl)pyridin-3-yl)benzamide], the IC50 in the assay on Escherichia coli was above 64 µM; with Staphylococcus aureus (Staphylococcus aureus), above 64 µM; in assay [1] (setting [2]) it was 2.12 µM.
Turning to `O=C(Nc1ccc(N2CCN(C(=O)c3cnccn3)CC2)nc1)c1ccc(Br)cc1Cl` [6k, 4-Bromo-2-chloro-N-(6-(4-(pyrazine-2-carbonyl)piperazin-1-yl)pyridin-3-yl)benzamide], the concentration for half-maximal inhibition (IC50) in the assay with Escherichia coli is above 64 µM; in the assay on Staphylococcus aureus (Staphylococcus aureus), above 64 µM; in assay [1] (setting [2]), 1.35 µM.
Take `Cc1ccccc1C(=O)Nc1ccc(N2CCN(C(=O)c3cnccn3)CC2)nc1` [6h, 2-Methyl-N-(6-(4-(pyrazine-2-carbonyl)piperazin-1-yl)pyridin-3-yl)benzamide]: the values for the IC50 (in the assay on Escherichia coli; in the assay on Staphylococcus aureus (Staphylococcus aureus); in assay [1] (setting [2])) were above 64 µM, above 64 µM and 1.82 µM, respectively. Moreover, the IC90 in assay [1] worked out at 3.85 µM.
Regarding `O=C(Nc1ccc(N2CCN(C(=O)c3cnccn3)CC2)nc1)c1ccncc1` [6m, N-(6-(4-(Pyrazine-2-carbonyl)piperazin-1-yl)pyridin-3-yl)isonicotinamide], the IC50 (with Escherichia coli; with Staphylococcus aureus (Staphylococcus aureus); in assay [1] (setting [2])) was above 64 µM in each case. The “Anti-TB activity” value in assay [1] is listed as “loss of activity”.
Regarding `O=C(Nc1ccc(N2CCN(C(=O)c3cnccn3)CC2)nc1)c1cccc(Br)c1` [6g, 3-Bromo-N-(6-(4-(pyrazine-2-carbonyl)piperazin-1-yl)pyridin-3-yl)benzamide], the IC50 (in the assay with Escherichia coli; in the assay with Staphylococcus aureus (Staphylococcus aureus); in assay [1] (setting [2])) was above 64 µM each time. Moreover, the “Anti-TB activity” value in assay [1] was “inactive”.
Consider `O=C(Nc1ccc(N2CCCN(C(=O)c3cnccn3)CC2)nc1)c1ccccc1I` [7h, 2-Iodo-N-(6-(4-(pyrazine-2-carbonyl)-1,4-diazepan-1-yl)pyridin-3-yl)benzamide], for which the IC50 (with Escherichia coli; with Staphylococcus aureus (Staphylococcus aureus); in assay [1] (setting [2])) was above 64 µM each time.
On to `NNC(=O)c1ccncc1` [Isoniazid, reference compound], for which, in assay [1] (setting [2]), the IC50 was determined as 0.013 µM.
On to `O=C(Nc1ccc(N2CCCN(C(=O)c3cnccn3)CC2)nc1)c1cccc(Br)c1` [7g, 3-Bromo-N-(6-(4-(pyrazine-2-carbonyl)-1,4-diazepan-1-yl)pyridin-3-yl)benzamide], for which the IC50 (in the assay with Escherichia coli; with Staphylococcus aureus (Staphylococcus aureus); in assay [1] (setting [2])) was above 64 µM each time.

The values are drawn from publication PMC9050811 (RSC Advances, 2020).
